Measured values taken from paper PMC9101642 (Molecules, 2022).
Read-outs that look alike come from different tables or passages of the source. Marks after values point to notes of the source that are not given here.

Legend:
MCF-7 cell lines = test: MTT antiproliferative assay; format: cell-based, human; details: for IC50: Homo sapiens, MCF7; for SI: selectivity index [IC50(MDA-MB-231)]/[IC50(MCF-7)]
[1] = MTT antiproliferative assay (neutral control); details: human
MDA-MB-231 cell lines = test: MTT antiproliferative assay; format: cell-based, human; details: Homo sapiens, MDA-MB-231
ERα [2] = molecular target: T1, ERα (Homo sapiens, UniProt P03372); test: Fluorescence polarization competition assay: antagonistic potency and relative binding affinity; details: for logRBA ERα: log of % relative binding affinity, estradiol = 100%
T1 sequence (P03372 1-595): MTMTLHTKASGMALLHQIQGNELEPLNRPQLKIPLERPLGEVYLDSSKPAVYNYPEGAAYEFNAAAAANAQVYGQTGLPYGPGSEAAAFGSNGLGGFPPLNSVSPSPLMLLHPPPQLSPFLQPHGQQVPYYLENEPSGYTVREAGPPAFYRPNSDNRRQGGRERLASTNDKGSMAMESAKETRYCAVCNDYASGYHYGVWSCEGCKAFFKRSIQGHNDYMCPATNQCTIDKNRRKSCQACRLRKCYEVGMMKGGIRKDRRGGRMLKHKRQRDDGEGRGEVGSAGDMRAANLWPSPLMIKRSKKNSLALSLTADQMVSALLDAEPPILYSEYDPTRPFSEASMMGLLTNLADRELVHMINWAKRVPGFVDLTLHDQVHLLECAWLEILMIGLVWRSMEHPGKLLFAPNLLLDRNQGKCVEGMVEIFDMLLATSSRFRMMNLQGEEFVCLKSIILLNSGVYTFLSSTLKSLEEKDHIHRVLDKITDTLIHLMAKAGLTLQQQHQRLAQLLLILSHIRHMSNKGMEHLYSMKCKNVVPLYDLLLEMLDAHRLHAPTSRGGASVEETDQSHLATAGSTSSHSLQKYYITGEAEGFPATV

ERβ = ERβ (Homo sapiens, UniProt Q92731); test: as above; details: for logRBA ERβ: log of % relative binding affinity, estradiol = 100%
[3] = system: progesterone receptor (PR); test: ERα functional antagonism cell assay (PR as biomarker) in MCF-7; format: cell-based; details: Homo sapiens, MCF7; progesterone receptor as biomarker for ERα antagonism in MCF-7
ERα [4] = molecular target: T1, ERα; test: ERα down-regulation immunofluorescence assay in MCF-7; format: cell-based
MCF-7 cells = test: Cell cycle distribution by flow cytometry; format: cell-based, human; details: 24 h
[5] = system: Ishikawa endometrial adenocarcinoma cells; test: Antiproliferative assay; format: cell-based; details: Homo sapiens, growth inhibition
Text: As SERMs profile is often associated with the stimulation of endometrial cell proliferation and an increase in the incidence of endometrial cancer (EC), the herein compounds were therefore evaluated against Ishikawa endometrial adenocarcinoma cells (Table 8, Supplementary Material Figures […]). […] However, future experimental elaboration, currently beyond the authors' experimental facilities, is required to confirm compounds' promising profiles in terms of no EC induction.

[6] = Liver oxidative stress markers after treatment of MNU-induced rats; format: in vivo, Wistar rats; details: liver, dose 50 mg/kg
Protocol: (§1) Rats were housed at 3 per cage and
(§2) The breast cancer was induced after the MNU (Sigma Aldrich CAS No. 684-93-5) administration. An aqueous solution at a concentration of 10 mg/ml was made by wetting the NMU powder with 3% acetic acid and then dissolving it in 0.9% NaCl solution; a fresh solution was prepared for each injection. Rats were given intraperitoneal (i.p.) 50 mg/kg of MNU on the 50th day of age. Animals were divided into different groups with six animals in each group. Group I (intact control) received 0.9% NaCl solution.
(§3) Groups II-IV and V-VII were introduced with MNU. Two weeks after MNU treatment, animals were treated orally with synthesized compounds and control substances (5 and 50 mg/kg, for groups II-IV and V-VII, respectively) by gavage once per day for six weeks. Animals in the intact control group and untreated MNU group were given vehicle (Tween 80) according to the experimental protocol. […]
Upon finishing the treatment with synthesized compounds, animals were sacrificed, and plasma, serum, and liver samples were collected. […]
Determination of Antioxidant Markers in Liver Homogenate
Rat liver samples were homogenized in phosphate buffer (5 mM, pH = 7.4) to give a 10% (w/v) liver homogenate and then centrifuged at 4000 rpm for 15 min at 4°C. The supernatant of liver homogenate was used for the estimation of reduced glutathione (GSH) and catalase (CAT) levels by the colorimetric method. The contents of malondialdehyde (MDA) in the supernatant of the liver homogenates were determined using 1,1,3,3-tetraethoxypropane as standard. Total protein concentrations were determined according to the method of Lowry using bovine serum albumin as […]

[7] = system: MNU-induced breast cancer tissue; test: Histopathology of breast sections; format: in vivo, Wistar rats; details: 50 mg/kg of bwt
Text: The impact of selected leads on BC tissue was registered after their administration to experimental animals with MNU-induced BC (Figure 9 and Supplementary Material Figures S211–S218). […] In contrast to this, the administered leads were harmless in both concentrations, neutralizing the MNU-induced changes, judging by the lobuloalveolar units and cuboidal epithelial cells found (Figure 9C,D, and Supplementary Material Figures S214–S218). […]
Histopathological Studies
histopathological changes. […]

[8] = system: MNU-induced breast cancer; test: In vivo anticancer screening, MNU-induced mammary tumorigenesis; design: species or system female Wistar rats; details: dose 50 mg/kg (compounds per os after MNU; MNU alone i.p.)
[9] = Serum biochemical markers after treatment of MNU-induced rats; format: in vivo, Wistar rats; design: TBC: unit not given here; details: dose 50 mg/kg
Protocol: as §1, §2, §3
Upon finishing the treatment with synthesized compounds, animals were sacrificed, and plasma, serum, and liver samples were collected.
Measurement of Serum Biochemical Markers
The activities of AST and ALT on 340 nm, and ALP on 405 nm, were determined by UV-Vis kinetic methods according to recommendations of the Expert Panel of the IFCC (International Federation of Clinical Chemistry). The colorimetric methods were used for the determination of total bilirubin (Jendrassik-Grof 550 nm method). All kinetic and colorimetric measurements were recorded using a Perkin-Elmer Lambda 25 UV/Vis spectrophotometer. […]

[10] = growth inhibition, 48 h, read-out: MCF-7 (IC50 nM)
[11] = concentration that antagonizes 50% of ERα signaling activity, read-out: ERα (IC50 nM)
[12] = concentration that antagonizes 50% of ERβ signaling activity, read-out: ERβ (IC50 nM)
[13] = ERα downregulation measured in MCF-7, read-out: MCF-7 DR (IC50 nM)
[14] = growth inhibition, 48 h, read-out: MDA-MB-231 (IC50 nM)
[15] = 1 nM as lower concentration (3DPQ-5, 3DPQ-6, 3DPQ-8)
[16] = calculated antagonistic (inhibitory) constant
[17] = MFD 1000 mg/kg (MNU: MTD 100 mg/kg bwt), 5 days

ERβ, sequence (Q92731 whole entry): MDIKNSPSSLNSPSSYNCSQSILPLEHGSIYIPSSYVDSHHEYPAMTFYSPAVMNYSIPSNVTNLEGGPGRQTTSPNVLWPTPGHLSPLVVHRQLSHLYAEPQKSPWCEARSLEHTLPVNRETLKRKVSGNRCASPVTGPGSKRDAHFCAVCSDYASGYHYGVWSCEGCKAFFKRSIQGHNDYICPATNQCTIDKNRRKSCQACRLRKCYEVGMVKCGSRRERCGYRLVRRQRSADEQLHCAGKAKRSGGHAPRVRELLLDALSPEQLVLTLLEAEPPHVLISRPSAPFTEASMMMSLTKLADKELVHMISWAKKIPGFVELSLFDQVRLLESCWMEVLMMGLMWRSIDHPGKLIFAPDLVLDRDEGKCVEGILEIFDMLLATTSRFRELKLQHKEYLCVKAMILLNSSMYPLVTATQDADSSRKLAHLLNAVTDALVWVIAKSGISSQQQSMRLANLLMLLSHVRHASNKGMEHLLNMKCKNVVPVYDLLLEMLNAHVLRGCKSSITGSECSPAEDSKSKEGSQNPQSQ

## C[C@H]1CCC/C=C/[C@@H]2C[C@H](O)C[C@H]2[C@H](O)/C=C/C(=O)O1 [BFA, Brefeldin A, reference compound]
MCF-7 cell lines; virtually screened NCI hits, Table S17, read-out: MCF-7 (IC50)
  IC50: 9010 nM
[1]
  IC50 at 48 h: > 100000 nM
MDA-MB-231 cell lines; virtually screened NCI hits, Table S17, read-out: MDA-MB-231 (IC50)
  IC50: > 100000 nM

## CC(=O)c1cc(C(=O)OC2C=CC(=O)OC(O)CCCC=CC3CC(O)CC32)ccc1OCCN1C(=O)CCC1=O (stereo not shown) [Compound 3DPQ-5, -decahydro-1H-cyclopenta[f][1]oxacyclotridecin-1-yl 3-acetyl-4-(2-(2,5-dioxopyrrolidin-1-yl)ethoxy)benzoate]
MCF-7 cell lines; [10]
  IC50: 1.02 ± 0.64 nM
MCF-7 cell lines
  SI: 51.61 ^‡,§
ERα [2]; calculated antagonistic (inhibitory) constant, read-out: Ka ERα
  Ki: 0.18 nM
ERα [2]; [11]
  IC50: 0.81 ± 0.43 nM
ERα [2]
  logRBA ERα: 2.04 ^‡
ERα [2]; ratio of IC50 values
  ERα potency, fold more potent than 4-OHT: 1.38 fold
ERβ; calculated antagonistic (inhibitory) constant, read-out: Ka ERβ
  Ki: 41.8 nM
ERβ; [12]
  IC50: 74.41 ± 0.46 nM
ERβ
  logRBA ERβ: 0.08 ^†,‡,§
[3]
  IC50: > 100 nM
ERα [4]; [13]
  IC50: > 100 nM
[1]
  IC50 at 48 h: > 100 nM
MDA-MB-231 cell lines; [14]
  IC50: 52.6 ± 0.69 nM
MCF-7 cells; [15]
  Cell Cycle (%) G0/G1: 71.78 ± 0.67 *^,†,‡,§ %
  Cell Cycle (%) G2/M: 19.01 ± 3.55 *^,†,‡,§ %
  Cell Cycle (%) S: 9.21 ± 1.95 *^,†,‡,§ %
MCF-7 cells; 10 nM (3DPQ-5, 3DPQ-6, 3DPQ-8)
  Cell Cycle (%) G0/G1: 74.24 ± 2.15 *^,†,‡,§ %
  Cell Cycle (%) G2/M: 15.85 ± 4.43 *^,†,‡,§ %
  Cell Cycle (%) S: 9.92 ± 0.76 *^,†,‡,§ %
[5]
  IC50: 1.42 ± 0.32 nM

## CC(=O)c1cc(C(=O)O[C@@H]2/C=C/C(=O)O[C@@H](O)CCC/C=C/[C@@H]3C[C@H](O)C[C@H]32)ccc1OCCN1Cc2cccnc2C1 [Compound 3DPQ-6, (1R,2E,6R,10E,11aS,13S,14aR)-6,13-dihydroxy-4-oxo-4,6,7,8,9,11a,12,13,14,14a-decahydro-1H-cyclopenta[f][1]oxacyclotridecin-1-yl 4-(2-(5H-pyrrolo[3,4-b]pyridin-6(7H)-yl)ethoxy)-3-acetylbenzoate]
MCF-7 cell lines; [10]
  IC50: 1.14 ± 0.49 nM
MCF-7 cell lines
  SI: 45.89 ^‡,§
ERα [2]
  IC50: 0.84 ± 0.11 nM
  Ki: 0.19 nM
  logRBA ERα: 2.03 ^‡
ERα [2]; ratio of IC50 values
  ERα potency, fold more potent than 4-OHT: 1.33 fold
ERβ
  IC50: 86.56 ± 0.33 nM
  Ki: 48.6 nM
  logRBA ERβ: 0.01 ^†,‡,§
[3]
  IC50: > 100 nM
ERα [4]
  IC50: > 100 nM
[1]
  IC50 at 48 h: > 100 nM
MDA-MB-231 cell lines; [14]
  IC50: 52.31 ± 0.46 nM
MCF-7 cells; [15]
  Cell Cycle (%) G0/G1: 70.52 ± 1.53 *^,†,‡,§ %
  Cell Cycle (%) G2/M: 16.21 ± 3.25 *^,†,‡,§ %
  Cell Cycle (%) S: 13.27 ± 2.64 *^,†,‡,§ %
MCF-7 cells; 10 nM (3DPQ-5, 3DPQ-6, 3DPQ-8)
  Cell Cycle (%) G0/G1: 71.98 ± 2.44 *^,†,‡,§ %
  Cell Cycle (%) G2/M: 14.05 ± 2.43 *^,†,‡,§ %
  Cell Cycle (%) S: 13.98 ± 1.33 *^,†,‡,§ %
[5]
  IC50: 1.46 ± 0.43 nM

## CC(=O)c1cc(C(=O)O[C@@H]2/C=C/C(=O)O[C@@H](O)CCC/C=C/[C@@H]3C[C@H](O)C[C@H]32)ccc1OCCN1C=Cc2ccccc2C1 [Compound 3DPQ-7, (1R,2E,6R,10E,11aS,13S,14aR)-6,13-dihydroxy-4-oxo-4,6,7,8,9,11a,12,13,14,14a-decahydro-1H-cyclopenta[f][1]oxacyclotridecin-1-yl 3-acetyl-4-(2-(isoquinolin-2(1H)-yl)ethoxy)benzoate]
MCF-7 cell lines; [10]
  IC50: 0.78 ± 0.52 nM
MCF-7 cell lines; ratio of IC50 values
  MCF-7 antiproliferative potency, fold higher than Ral: 1.14 fold
MCF-7 cell lines
  SI: 66.61 ^‡,§
ERα [2]; [16]
  Ka ERα (nM): 0.14 ^†,‡ nM
ERα [2]; [11]
  IC50: 0.64 ± 0.13 nM
ERα [2]
  logRBA ERα: 2.14 ^†,‡
ERα [2]; ratio of IC50 values
  ERα potency, fold higher than Ral: 1.16 fold
ERβ; [16]
  Ka ERβ (nM): 40.64 ^†,‡,§ nM
ERβ; [12]
  IC50: 72.34 ± 0.17 nM
ERβ
  logRBA ERβ: 0.09 ^†,‡,§
[3]
  IC50: > 100 nM
ERα [4]; [13]
  IC50: > 100 nM
[1]
  IC50 at 48 h: > 100 nM
MDA-MB-231 cell lines; [14]
  IC50: 52 ± 0.68 nM
MCF-7 cells; 0.1 nM
  Cell Cycle (%) G0/G1: 73.25 ± 2.54 *^,†,‡,§ %
  Cell Cycle (%) G2/M: 12.69 ± 2.64 *^,†,‡,§ %
  Cell Cycle (%) S: 14.06 ± 1.58 *^,†,‡,§ %
MCF-7 cells; 1 nM
  Cell Cycle (%) G0/G1: 75.71 ± 1.43 *^,†,‡,§ %
  Cell Cycle (%) G2/M: 9.53 ± 3.54 *^,†,‡,§ %
  Cell Cycle (%) S: 14.77 ± 1.46 *^,†,‡,§ %
[5]
  IC50: 1.74 ± 0.43 nM

## CN(N=O)C(N)=O [MNU, Methyl nitrosourea, reference compound]
[6]; catalase activity
  CAT: 3.08±0.68
[6]
  TBARS: 3.31 ± 0.72 nmol/mg
[6]; superoxide dismutase activity
  SOD (U/mg): 3.32±0.14 U/mg
[6]; total protein content
  TP: 51.32 ± 0.43 g/L
[17]
  colon section histopathology: induced colon
  heart section histopathology: interstitial hydrops
  kidney section histopathology: large size neoplastic lymphocytes infiltrated into the interstitial
  liver section histopathology: numerous numbers of medium to large size neoplastic lymphocytes
  lung section histopathology: alveolar bronchiolar
  spleen section histopathology: faded red pulp
Average body weight at day 1, dosing at MFD
  WL after MFD (day 1, mg): 305.44 ± 0.62 mg
Maximum feasible (or tolerated) dose, 5 days per os, 5-1000 mg/kg bwt
  MFD (5 days): 100 mg/kg
[7]
  breast section histopathology: mammary gland carcinoma alongside with massive proliferation of neoplastic epithelial cells (EC)
[8]
  Tumor Burden (week): 4.55 ± 0.15 *^,‡,§,‖,┴ week
  Tumor Latency (week): 5 *^,†,‡,§,‖,┴ week
  Tumor Volume (mm^3): 4.48 ± 0.54 mm^3
[9]; serum
  ALP (A/L): 232.54±0.32 A/L
  ALT (A/L): 157.31 A/L
  AST (U/L): 135.43 U/L
  γ-GT (U/L): 19.43±0.42 U/L
[9]; total bilirubin content
  TBC: 32.34
